“And” between values parts separate entries of the source, which are not always exact repeats. Identical values can stand only once.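 Five compound concentrations were applied to cells in 96-well plates for 48 hours; endpoints were derived by simple linear interpolation of the resulting dose-response curve. Abbreviation: GI50, concentration required for 50% inhibition of growth.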 The source made the active and inactive calls. No stated cut-off is given here; in the data, active = GI50 up to about 1.1 µM and inactive = higher.
Legend:
Assay in all cases: growth of human tumour cells (NCI), 48 h
EKVX = tested on: EKVX
SK-MEL-28 = tested on: SK-MEL-28
Malme-3M = tested on: Malme-3M
MDA-N = tested on: MDA-N
A498 = tested on: A498
SW-620 = tested on: SW-620
TK-10 = tested on: TK-10
ACHN = tested on: ACHN
SNB-19 = tested on: SNB-19
MCF7 = tested on: MCF7
OVCAR-4 = tested on: OVCAR-4
PC-3 = tested on: PC-3
SK-MEL-2 = tested on: SK-MEL-2
SF-268 = tested on: SF-268
COLO 205 = tested on: COLO 205
LOX IMVI = tested on: LOX IMVI
MDA-MB-231 = tested on: MDA-MB-231
HCC 2998 = tested on: HCC 2998
NCI-H460 = tested on: NCI-H460
UACC-62 = tested on: UACC-62
RXF 393 = tested on: RXF 393
HCT-15 = tested on: HCT-15
Hs-578T = tested on: Hs-578T
BT-549 = tested on: BT-549
NCI-H23 = tested on: NCI-H23
SN12C = tested on: SN12C
OVCAR-5 = tested on: OVCAR-5
SK-MEL-5 = tested on: SK-MEL-5
NCI/ADR-RES = tested on: NCI/ADR-RES
SF-295 = tested on: SF-295
HOP-62 = tested on: HOP-62
NCI-H522 = tested on: NCI-H522
IGROV-1 = tested on: IGROV-1
MDA-MB-435 = tested on: MDA-MB-435
UACC-257 = tested on: UACC-257
NCI-H226 = tested on: NCI-H226
OVCAR-3 = tested on: OVCAR-3
K562 = tested on: K562
SF-539 = tested on: SF-539
HCT-116 = tested on: HCT-116
OVCAR-8 = tested on: OVCAR-8
M14 = tested on: M14
786-0 = tested on: 786-0
SR = tested on: SR
SNB-75 = tested on: SNB-75
KM12 = tested on: KM12
U-251 = tested on: U-251
UO-31 = tested on: UO-31
CCRF-CEM = tested on: CCRF-CEM
SK-OV-3 = tested on: SK-OV-3
A549 = tested on: A549
MOLT-4 = tested on: MOLT-4
HT-29 = tested on: HT-29
CAKI-1 = tested on: CAKI-1
RPMI-8226 = tested on: RPMI-8226

CC(=O)OCC1OC(SC2=N/C(=C\c3ccc(Br)s3)C(=O)N2c2ccccc2)C(OC(C)=O)C(OC(C)=O)C1OC(C)=O (centres undefined)
GI50 (EKVX): 34.3 µM (inactive) and 30.7 µM (inactive) | GI50 (SK-MEL-28): > 100 µM (inactive) and 82.8 µM (inactive) | GI50 (Malme-3M): 50.6 µM (inactive) and 53.6 µM (inactive) | GI50 (MDA-N): > 100 µM (inactive) and 54.6 µM (inactive) | GI50 (A498): 41.1 µM (inactive) and 58.7 µM (inactive) | GI50 (SW-620): > 100 µM (inactive) and 92 µM (inactive) | GI50 (TK-10): 40.6 µM (inactive) and 60.3 µM (inactive) | GI50 (ACHN): 32.1 µM (inactive) and 52.1 µM (inactive) | GI50 (SNB-19): 56.4 µM (inactive) and 37.1 µM (inactive) | GI50 (MCF7): 42 µM (inactive) and 78.9 µM (inactive) | GI50 (OVCAR-4): 31.8 µM (inactive) and 41.9 µM (inactive) | GI50 (PC-3): 34.1 µM (inactive) and 58.5 µM (inactive) | GI50 (SK-MEL-2): 16.7 µM (inactive) and 32.6 µM (inactive) | GI50 (SF-268): > 100 µM (inactive) and 55.8 µM (inactive) | GI50 (COLO 205): 41.2 µM (inactive) and 57.9 µM (inactive) | GI50 (LOX IMVI): 47.8 µM (inactive) and 64.3 µM (inactive) | GI50 (MDA-MB-231): 58.5 µM (inactive) and 42.9 µM (inactive) | GI50 (HCC 2998): 59 µM (inactive) and 36.5 µM (inactive) | GI50 (NCI-H460): 30.1 µM (inactive) and 38.1 µM (inactive) | GI50 (UACC-62): 30.6 µM (inactive) and 30.9 µM (inactive) | GI50 (RXF 393): 12.1 µM (inactive) and 9.64 µM (inactive) | GI50 (HCT-15): > 100 µM and 66.8 µM | GI50 (Hs-578T): 48.1 µM (inactive) and 35.2 µM (inactive) | GI50 (BT-549): 24.4 µM (inactive) and 41.6 µM (inactive) | GI50 (NCI-H23): 19 µM (inactive) and 33.4 µM (inactive) | GI50 (SN12C): 50.6 µM (inactive) | GI50 (OVCAR-5): > 100 µM (inactive) | GI50 (SK-MEL-5): 52.2 µM (inactive) and 42.9 µM (inactive) | GI50 (NCI/ADR-RES): 40.9 µM (inactive) and 43.1 µM (inactive) | GI50 (SF-295): 39.8 µM (inactive) and 58.1 µM (inactive) | GI50 (HOP-62): 55 µM (inactive) and 41.7 µM (inactive) | GI50 (NCI-H522): 21.8 µM (inactive) and 25.5 µM (inactive)

Cc1cc(C)c(C2CC(O)C(CO)O2)cc1C (centres undefined)
GI50 (EKVX): > 100 µM (inactive) | GI50 (IGROV-1): > 100 µM (inactive) | GI50 (SK-MEL-28): > 100 µM (inactive) | GI50 (Malme-3M): > 100 µM (inactive) | GI50 (MDA-N): > 100 µM (inactive) | GI50 (SW-620): > 100 µM (inactive) | GI50 (MDA-MB-435): > 100 µM (inactive) | GI50 (TK-10): > 100 µM (inactive) | GI50 (ACHN): > 100 µM (inactive) | GI50 (UACC-257): > 100 µM (inactive) | GI50 (NCI-H226): > 100 µM (inactive) | GI50 (SNB-19): > 100 µM (inactive) | GI50 (OVCAR-3): > 100 µM (inactive) | GI50 (OVCAR-4): > 100 µM (inactive) | GI50 (K562): > 100 µM (inactive) | GI50 (SF-539): > 100 µM (inactive) | GI50 (HCT-116): > 100 µM (inactive) | GI50 (PC-3): > 100 µM (inactive) | GI50 (OVCAR-8): > 100 µM (inactive) | GI50 (SK-MEL-2): > 100 µM (inactive) | GI50 (M14): > 100 µM (inactive) | GI50 (786-0): > 100 µM (inactive) | GI50 (SF-268): > 100 µM (inactive) | GI50 (SR): > 100 µM (inactive) | GI50 (COLO 205): > 10 µM (inactive) | GI50 (LOX IMVI): > 100 µM (inactive) | GI50 (SNB-75): > 100 µM (inactive) | GI50 (KM12): > 100 µM (inactive) | GI50 (U-251): > 100 µM (inactive) | GI50 (MDA-MB-231): > 100 µM (inactive) | GI50 (UO-31): > 100 µM (inactive) | GI50 (CCRF-CEM): > 100 µM (inactive) | GI50 (HCC 2998): > 100 µM (inactive) | GI50 (NCI-H460): > 100 µM (inactive) | GI50 (SK-OV-3): > 100 µM (inactive) | GI50 (UACC-62): > 100 µM (inactive) | GI50 (A549): > 100 µM (inactive) | GI50 (MOLT-4): > 100 µM (inactive) | GI50 (HCT-15): > 100 µM | GI50 (Hs-578T): > 100 µM (inactive) | GI50 (BT-549): > 100 µM (inactive) | GI50 (NCI-H23): > 100 µM (inactive) | GI50 (SN12C): > 100 µM (inactive) | GI50 (OVCAR-5): > 100 µM (inactive) | GI50 (SK-MEL-5): > 100 µM (inactive) | GI50 (NCI/ADR-RES): 67.5 µM (inactive) | GI50 (SF-295): > 100 µM (inactive) | GI50 (HOP-62): > 100 µM (inactive) | GI50 (HT-29): > 100 µM (inactive) | GI50 (CAKI-1): > 100 µM (inactive) | GI50 (RPMI-8226): > 100 µM (inactive) | GI50 (NCI-H522): > 100 µM (inactive)
